Measurements as given in PubChem BioAssay (NCI).
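Grown in 96-well plates, cells were treated for 48 hours with each compound at five concentrations. Insufficient inhibition: endpoint recorded as highest concentration tested. TGI is the concentration that stops growth completely.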

Legend:
Assay in all cases: NCI tumour cell line growth inhibition, 48 h
UACC-62 melanoma = system: UACC-62 melanoma
UO-31 renal = system: UO-31 renal
NCI/ADR-RES ovarian = system: NCI/ADR-RES ovarian
U251 CNS = system: U251 CNS
MDA-MB-231 breast = system: MDA-MB-231 breast
COLO 205 colon = system: COLO 205 colon
SF-268 CNS = system: SF-268 CNS
SF-295 CNS = system: SF-295 CNS
SR leukemia = system: SR leukemia
RPMI-8226 leukemia = system: RPMI-8226 leukemia
786-0 renal = system: 786-0 renal
BT-549 breast = system: BT-549 breast

`CC1OC(OC2C(O)COC(OC3C(C)OC(OC4C(OC(=O)[C@]56CCC(C)(C)C[C@@H]5C5=CCC7[C@@]8(C)C[C@H](O)[C@H](OC9OC(CO)C(O)C(O)C9O)[C@@](C)(CO)[C@@H]8CC[C@@]7(C)[C@]5(C)CC6)OCC(O)C4O)C(O)C3OC3OCC(O)(CO)C3O)C2O)C(O)C(O)C1O` (some centres undefined) gave a TGI (UACC-62 melanoma) of 31.6 µM, a TGI (UO-31 renal) of 14.2 µM and a TGI (NCI/ADR-RES ovarian) of 41.7 µM. The TGI (U251 CNS) was 37.4 µM, the TGI (MDA-MB-231 breast) was 30 µM and the TGI (COLO 205 colon) was 6.37 µM. The TGI (SF-268 CNS) was 28.4 µM, the TGI (SF-295 CNS) was 32.2 µM and the TGI (SR leukemia) was 38 µM. It also gave a TGI (RPMI-8226 leukemia) of over 100 µM, a TGI (786-0 renal) of 27.8 µM and a TGI (BT-549 breast) of 38 µM.
With `Cn1ccc(C(=O)NCCN(CCNC(=O)c2ccn(C)c(=O)c2O)CCNC(=O)c2cccc(=O)n2O)c(O)c1=O` the TGI (UACC-62 melanoma) was over 100 µM, the TGI (UO-31 renal) was over 100 µM and the TGI (NCI/ADR-RES ovarian) was over 100 µM. It also gave a TGI (U251 CNS) of over 100 µM, a TGI (MDA-MB-231 breast) of over 100 µM and a TGI (COLO 205 colon) of over 100 µM. For the same compound, the TGI (SF-268 CNS) was over 100 µM, the TGI (SF-295 CNS) was over 100 µM and the TGI (SR leukemia) was over 100 µM. For the same compound, the TGI (RPMI-8226 leukemia) was over 100 µM, the TGI (786-0 renal) was over 100 µM and the TGI (BT-549 breast) was over 100 µM.
`O=[N+]([O-])c1ccc2c(c1)C1=C(CO2)Cc2ccccc2O1` was tested, and the TGI (UACC-62 melanoma) was 50.7 µM, the TGI (UO-31 renal) was 28.1 µM and the TGI (NCI/ADR-RES ovarian) was over 100 µM. It also gave a TGI (U251 CNS) of 36.2 µM, a TGI (MDA-MB-231 breast) of 51.4 µM and a TGI (COLO 205 colon) of 30.6 µM. The TGI (SF-268 CNS) was 63.5 µM, the TGI (SF-295 CNS) was over 100 µM and the TGI (SR leukemia) was over 100 µM. For the same compound, the TGI (RPMI-8226 leukemia) was over 100 µM, the TGI (786-0 renal) was 39.9 µM and the TGI (BT-549 breast) was 61.9 µM.
`O=C(Oc1ccccn1)c1cc2cc(CCl)ccc2oc1=O` was tested, and the TGI (UACC-62 melanoma) was 85.6 µM, the TGI (UO-31 renal) was over 100 µM and the TGI (NCI/ADR-RES ovarian) was 75.5 µM. For the same compound, the TGI (U251 CNS) was 34.7 µM, the TGI (MDA-MB-231 breast) was 46.6 µM and the TGI (COLO 205 colon) was over 100 µM. The TGI (SF-268 CNS) was 39.2 µM, the TGI (SF-295 CNS) was over 100 µM and the TGI (SR leukemia) was over 100 µM. The TGI (RPMI-8226 leukemia) was over 100 µM, the TGI (786-0 renal) was 39.6 µM and the TGI (BT-549 breast) was 49.7 µM.
`Nc1nc(SC/C=C/c2ccccc2)c2[nH]cnc2n1` gave a TGI (UACC-62 melanoma) of over 100 µM, a TGI (UO-31 renal) of over 100 µM and a TGI (NCI/ADR-RES ovarian) of over 100 µM. The TGI (U251 CNS) was over 100 µM, the TGI (MDA-MB-231 breast) was over 100 µM and the TGI (COLO 205 colon) was over 100 µM. It also gave a TGI (SF-268 CNS) of over 100 µM, a TGI (SF-295 CNS) of over 100 µM and a TGI (SR leukemia) of over 100 µM. For the same compound, the TGI (RPMI-8226 leukemia) was over 100 µM, the TGI (786-0 renal) was over 100 µM and the TGI (BT-549 breast) was over 100 µM.
Work on `NC(=O)C(C(N)=O)=C(O)C(=O)/C=C(\O)c1ccccc1` yielded a TGI (UACC-62 melanoma) of over 100 µM, a TGI (UO-31 renal) of over 100 µM and a TGI (NCI/ADR-RES ovarian) of over 100 µM. The TGI (U251 CNS) was over 100 µM, the TGI (MDA-MB-231 breast) was over 100 µM and the TGI (COLO 205 colon) was over 100 µM. For the same compound, the TGI (SF-268 CNS) was over 100 µM, the TGI (SF-295 CNS) was over 100 µM and the TGI (SR leukemia) was 13.9 µM. The TGI (RPMI-8226 leukemia) was 31.7 µM, the TGI (786-0 renal) was over 100 µM and the TGI (BT-549 breast) was over 100 µM.
With `CCOC(=O)c1nnc2c(C(=O)OCC)c3ccccc3n2c1N` the TGI (UACC-62 melanoma) was 9.25 µM, the TGI (UO-31 renal) was over 100 µM and the TGI (NCI/ADR-RES ovarian) was 43.6 µM. The TGI (U251 CNS) was over 100 µM, the TGI (MDA-MB-231 breast) was 87.8 µM and the TGI (COLO 205 colon) was 49.6 µM. For the same compound, the TGI (SF-268 CNS) was over 100 µM, the TGI (SF-295 CNS) was over 100 µM and the TGI (SR leukemia) was over 100 µM. For the same compound, the TGI (RPMI-8226 leukemia) was 6.39 µM, the TGI (786-0 renal) was over 100 µM and the TGI (BT-549 breast) was over 100 µM.
`CCOC(=O)CN1C(=O)c2ccc(NC(=O)C(=O)O)cc2S1(=O)=O` was tested, and the TGI (UACC-62 melanoma) was over 100 µM, the TGI (UO-31 renal) was over 100 µM and the TGI (NCI/ADR-RES ovarian) was over 100 µM. For the same compound, the TGI (U251 CNS) was over 100 µM, the TGI (MDA-MB-231 breast) was over 100 µM and the TGI (COLO 205 colon) was over 100 µM. For the same compound, the TGI (SF-268 CNS) was over 100 µM, the TGI (SF-295 CNS) was over 100 µM and the TGI (SR leukemia) was over 100 µM. It also gave a TGI (RPMI-8226 leukemia) of over 100 µM, a TGI (786-0 renal) of over 100 µM and a TGI (BT-549 breast) of over 100 µM.
`CCOC(=O)CC[C@H](NC(=O)[C@H](N)Cc1ccc(N(CCCl)CCCl)cc1)C(=O)OCC` was tested, and the TGI (UACC-62 melanoma) was 15.2 µM, the TGI (UO-31 renal) was 29.8 µM and the TGI (NCI/ADR-RES ovarian) was 30.9 µM. For the same compound, the TGI (U251 CNS) was over 59.2 µM, the TGI (MDA-MB-231 breast) was over 58.8 µM and the TGI (COLO 205 colon) was 52.9 µM. For the same compound, the TGI (SF-268 CNS) was 19.7 µM, the TGI (SF-295 CNS) was over 77.8 µM and the TGI (SR leukemia) was over 100 µM. The TGI (RPMI-8226 leukemia) was over 100 µM, the TGI (786-0 renal) was 23.5 µM and the TGI (BT-549 breast) was over 65.3 µM.
For `O=C1C(c2c(O)[nH]c3ccc(F)cc23)=Nc2ccccc21`, the TGI (UACC-62 melanoma) was over 100 µM, the TGI (UO-31 renal) was over 100 µM and the TGI (NCI/ADR-RES ovarian) was over 100 µM. It also gave a TGI (U251 CNS) of 42.7 µM, a TGI (MDA-MB-231 breast) of 54.6 µM and a TGI (COLO 205 colon) of over 100 µM. For the same compound, the TGI (SF-268 CNS) was over 100 µM, the TGI (SF-295 CNS) was over 100 µM and the TGI (SR leukemia) was over 100 µM. For the same compound, the TGI (RPMI-8226 leukemia) was over 100 µM, the TGI (786-0 renal) was over 100 µM and the TGI (BT-549 breast) was over 100 µM.
`Clc1ccc(C2C3COc4ccccc4C3=NN2c2ccccc2)cc1` (centres undefined) was tested, and the TGI (UACC-62 melanoma) was over 100 µM, the TGI (UO-31 renal) was over 100 µM and the TGI (NCI/ADR-RES ovarian) was over 100 µM. The TGI (U251 CNS) was over 100 µM, the TGI (MDA-MB-231 breast) was over 100 µM and the TGI (COLO 205 colon) was over 100 µM. For the same compound, the TGI (SF-268 CNS) was over 100 µM, the TGI (SF-295 CNS) was over 100 µM and the TGI (SR leukemia) was 1.78 µM. It also gave a TGI (RPMI-8226 leukemia) of 7.32 µM, a TGI (786-0 renal) of over 96.4 µM and a TGI (BT-549 breast) of over 100 µM.
`Cc1c(N=Nc2ccc(Cl)cc2)c(-c2ccccc2)n(C2OC(CO)C(O)C(O)C2O)c(=S)c1C#N` (centres undefined) gave a TGI (UACC-62 melanoma) of 26.1 µM, a TGI (UO-31 renal) of 34.2 µM and a TGI (NCI/ADR-RES ovarian) of 32.8 µM. The TGI (U251 CNS) was 25.3 µM, the TGI (MDA-MB-231 breast) was 39.2 µM and the TGI (COLO 205 colon) was 37.7 µM. For the same compound, the TGI (SF-268 CNS) was 44.8 µM, the TGI (SF-295 CNS) was 73.9 µM and the TGI (SR leukemia) was over 100 µM. The TGI (RPMI-8226 leukemia) was over 100 µM, the TGI (786-0 renal) was 36.7 µM and the TGI (BT-549 breast) was 29.5 µM.
